# Measurements reported in patent US7084323B1, “Stress-protected transgenic plants” (The General Hospital Corporation, priority 1996, dated 2006).
# Tests used:
# Type in all cases: cell-based
# [1] = tested on: stress-inducible HVA1 promoter; test: HVA1-SGFP expression in maize leaf protoplasts treated with Ca2+ ionophores; details: 1 mM Ca2+ alone or with 100 nM ionophore in incubation medium
# From the text: The role of Ca^2+ as a second messenger in multiple stress responses was also studied. The effects of increased intracellular Ca^2+ on HVA1-SGFP expression in maize leaf protoplasts using Ca^2+ ionophore was examined using standard methods as described below (Knight et al., Nature 352:524, 1991; Schroeder and Thuleau, Plant Cell 3:555, 1991; Braam, Proc. Natl. Acad. Sci. U.S.A. 89:3213, 1992; McAinsh et al., Plant Cell 4:1113, 1992; Assmann, Ann. Rev. Cell Biol. 9:345, 1993; Poovaiah and Reddy, Crit. Rev. Plant Sci. 12:185, 1993; Trewavas and Knight, Plant Mol. Biol. 26:1329, 1994; Ward and Schroeder, Plant Cell 6:669, 1994; Bethke et al., in Plant Hormones, Davies, Ed., (Kluwer Academic 1995) pp. 298–317; Bush, Ann. Rev. Plant Physiol. Plant Mol. Biol. 46:95, 1995; Monroy and Dhindsa, Plant Cell 7:32, 1995; and Knight et al., Plant Cell 8:489, 1996).
# Maize leaf protoplasts transfected with HVA1-SGFP (HVA) or UBI-SGFP (UBI) were treated with 1 mM Ca^2+, 1 mM Ca^2+/100 nM A23187, and 1 mM Ca^2+/100 nM ionomycin, respectively designated “C,” “A,” and “I” in FIG. 2. UBI-SGFP was constructed by inserting the UBI promoter from pAHC27 (Christensen et al., Plant Mol. Biol. 18:675, 1992) into the SGFP vector (Chiu et al., Curr. Biol. 6:225, 1996). […] About 10^5 protoplasts from each treatment were observed using a fluorescence microscope (Chiu et al., Curr. Biol. 6:225, 1996). […]
# [2] = tested on: stress-inducible HVA1 promoter; test: HVA1-SGFP reporter expression in maize leaf protoplasts under stress/ABA treatment
# From the text: Responses to multiple stress treatments were monitored using green-fluorescent protein (GFP) as a vital reporter (Chiu et al. Curr. Biol. 6:225, 1996), using a single cell maize leaf protoplast system (Sheen, EMBO J 12:3497, 1993). A chimeric gene was generated by fusing the stress-inducible CDPK HVA1 promoter (Straub et al., Plant Mol. Biol. 26:617, 1994) to a synthetic GFP sequence (HVA1-SGFP) (Chiu et al. Curr. Biol. 6:225, 1996). The barley HVA1 promoter was obtained by PCR using barley genomic DNA and two primers: 5′[…]-3′ (SEQ ID NO: 17) and 5′-[…]-3′ (SEQ ID NO: 18). The HVA1 promoter and the SGFP were fused at the ATG NcoI site. The CDPK HVA1 gene has been reported to be activated by multiple stress signals in vegetative tissues (Straub et al., Plant Mol. Biol. 26:617, 1994). […]
# Maize leaf protoplasts were electroporated with the plasmid DNA carrying HVA1-SGFP and divided (10^5 cells/ml per sample) for various treatments: constant light (15 μEm^−2S^−1) at 23° C. for sixteen hours (Control), 0° C. for four hours followed by twelve hours at 23° C. […] About 10^5 protoplasts from each treatment were observed using a fluorescence microscope as described by Chiu et al. (Curr. Biol. 6:225, 1996). […] About 50% of the protoplasts, showing green/yellow fluorescence after the induction, were transiently transformed. […]
# HVA1 promoter [3] = test: HVA1-LUC expression with constitutively active or null PP2C effector in maize leaf protoplasts; details: ABA treatment
# From the text: To further support the idea that ATCDPK1 and ATCDPK1a are positive regulators in plant stress signal transduction, the effect of a specific and constitutively active Arabidopsis protein phosphatase 2C (PP2C) capable of abolishing ABA responses (Leung et al., Science 264:1448, 1994; Meyer et al., Science 264:1452, 1994; Armstrong et al., Proc. Natl. Acad. Sci. USA 92:9520, 1995) was examined as follows. Maize leaf protoplasts were electroporated with HVA1-LUC alone or with the effectors as indicated. […] The experiments with the constitutively active PP2C or the null PP2C were performed with two concentrations of plasmid DNA (+, 20 μg and ++, 60 μg) (FIG. 4C). LUC and GUS assays were performed with 2% of the cell lysates as described previously by Sheen (EMBO J. 12:3497, 1993; Jefferson, Plant Mol. Biol. Rep. 5:387, 1987; and Luehrsen et al., Meth. Enz. 216:397, 1992). Relative LUC activities from duplicated samples are shown. The experiment was repeated three times with similar results (FIG. 4C).
# HVA1 promoter [4] = test: HVA1-LUC reporter co-expression with constitutive PK constructs in maize leaf protoplasts; details: co-electroporated constitutive (truncated) PK construct, without ABA
# Protocol: For quantitating the effect of various constitutive PKs on stress signaling, another chimeric gene with the HVA1 promoter and the luciferase coding sequence (Leuhrsen et al., Meth. Enz. 216:397, 1992) (HVA1-LUC) was generated. Co-expression experiments were performed by electroporating the reporter (HVA1-LUC) and the effector (35SC4PSK-PK-HA) plasmids together into maize leaf protoplasts as follows.
# Maize leaf protoplasts were transfected with HVA1-LUC alone and incubated without (FIG. 3E, “C”) or with 100 μM ABA (FIG. 3E, “A”). HVA1-LUC was also co-electroporated with the PK constructs (1–8) shown in FIG. 3C and FIG. 3D, and incubated without ABA (FIG. 3E, “1–8”). Relative LUC activities from duplicated samples are shown. About 2% of the cell lysates were used for LUC (Luehrsen et al., Meth. Enz. 216:397, 1992) and GUS assays (Sheen, EMBO J. 12:3497, 1993; and Jefferson, Plant Mol. Biol. Rep. 5:387, 1987). The experiment was repeated three times with similar results.
molecule,measurement,setting,value
CNc1ccc2oc(C[C@H]3O[C@@]4(CC[C@H]3C)O[C@H]([C@H](C)C(=O)c3ccc[nH]3)[C@H](C)C[C@H]4C)nc2c1C(=O)O [A23187],expression of HVA1-GFP,[1],significantly increased
"CC1=CC(=O)CC(C)(C)[C@@]1(O)/C=C/C(C)=C\C(=O)O [ABA, abscisic acid]",GFP expression from HVA1-SGFP,[2]; 1 μM ABA (data not shown),visible
same,expression of GFP from HVA1-SGFP,"[2]; 100 μM ABA for sixteen hours, fluorescence microscopy",enhanced
same,HVA1-LUC expression,HVA1 promoter [3],activated
C[C@H](CCC(=O)O)C[C@H](C)C[C@H](C)C(=O)/C=C(\O)[C@H](C)C[C@H](C)C/C=C/[C@@H](C)[C@@H](O)[C@@H](C)[C@@H](O)C[C@@H]1CC[C@@](C)([C@H]2CC[C@@](C)([C@@H](C)O)O2)O1 [ionomycin],expression of HVA1-GFP,[1],significantly increased
"ATCDPK1a: truncated constitutively active Arabidopsis CDPK PK domain, SEQ ID NO: 2 (protein, listed as Arabidopsis thaliana) MANQTQISDKYILGRELGRGEFGITYLCTDRETREALACKSISKRKLRTAVDVEDVRREVTIMSTLPEHPNVVKLKATYEDNETVHLVMELCEGGELFGRIVARGHYTERAAATVARTIAEVVRMCHVNGVMHRDLKPENFLFANKKENSALKAIDFGLSVLFKPGERFTEIVGSPYYMAPEVLKRNYGPEVDVWSAGVILYILLCGVPPFWAETEQGVALAILRGVLDFKRDPWSQISESAKSLVKQMLEPDSTKRLTAQQVLDHPWIQNAKK",LUC expression controlled by the HVA1 promoter,HVA1 promoter [4],specifically activate
